One block for each compound: values may come before it.
What was measured:
Human IDO1 = Human IDO1 (Homo sapiens (Human), UniProt P14902); experiment: IDO Kynurenine Assay with Human IDO1/HEK293 Cells; type: cell-based; conditions: HEK293 cells with human IDO1; read-out: HEK human IDO-1 (IC50)
Experimental: IDO Kynurenine Assay with Human IDO1/HEK293 Cells
Human IDO1/HEK293 cells were seeded at 10,000 cells per 50 uL per well with RPMI/phenol red free media contains 10% FBS in a 384-well black wall clear bottom tissue culture plate (Matrix Technologies LLC) 125 nL of certain concentration of compound was then added to each well using ECHO liquid handling systems. The cells were incubated for 20 hours in 37° C. incubator with 5% CO2.
The compound treatments were stopped by adding Trichloroacetic Acid (Sigma-Aldrich) to a final concentration at 0.2%. The cell plate was further incubated at 50° C. for 30 minute. The equal volume supernatant (20 uL) and 0.2% (w/v) Ehrlich reagent (4-dimethylaminobenzaldehyde, Sigma-Aldrich) in glacial acetic acid were mixed in a new clear bottom 384-well plate. This plate was then incubated at room temperature for 30 minute. The absorbance at 490 nm was measured on Envision plate reader.

IDO [1] = molecular target: T1, IDO (Homo sapiens (Human), UniProt P14902); experiment: LLE_IDO_ABS_DR (IDO assay, method not described)
T1 sequence (P14902 whole entry): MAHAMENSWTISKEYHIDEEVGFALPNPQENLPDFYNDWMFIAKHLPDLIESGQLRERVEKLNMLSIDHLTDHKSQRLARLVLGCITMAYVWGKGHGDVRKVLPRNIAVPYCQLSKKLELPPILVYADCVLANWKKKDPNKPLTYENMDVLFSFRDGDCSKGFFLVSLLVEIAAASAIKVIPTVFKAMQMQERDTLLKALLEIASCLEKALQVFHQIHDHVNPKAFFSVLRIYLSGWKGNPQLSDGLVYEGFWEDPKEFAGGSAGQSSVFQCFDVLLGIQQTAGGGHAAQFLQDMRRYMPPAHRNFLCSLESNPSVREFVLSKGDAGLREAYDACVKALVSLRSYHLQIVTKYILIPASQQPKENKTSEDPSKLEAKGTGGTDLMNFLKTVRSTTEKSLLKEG

IDO [2] = molecular target: T1, IDO; experiment: Kynurenine assay in IFN-γ-stimulated Hela cells; type: cell-based; conditions: 20 h, read-out: Hela Kyurenine (IC50)
Method in brief: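 Kynurenine in supernatant is read at 490 nm after Ehrlich reagent (10 min RT), following TCA stop and 30 min at 50° C hydrolysis. Before that, Hela cells in phenol red-free RPMI/10% FBS were co-treated 20 h at 37° C with 100 ng/mL IFN-γ and compound (30 μM top, 3-fold series to 1.5 nM).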

Human IDO1, sequence (P14902 whole entry): as above

Structure (SMILES): Cc1ccc(NC(=O)Nc2cc(-c3ccccc3C(=O)O)ccc2Oc2ccccc2C(C)(C)C)cc1 [Example 2, 4′-(2-tert-Butylphenoxy)-3′-(3-p-tolylureido)biphenyl-2-carboxylic acid]
IC50 (Human IDO1): 0.56 µM
IC50 (IDO [2]): 0.06 µM
IC50 (IDO [1]): 0.07 µM

Structure (SMILES): CCOc1ccc(-c2ccc(Oc3ccccc3C(C)(C)C)c(NC(=O)Nc3ccc(C)cc3)c2)cc1C(=O)O [Example 5, 4′-(2-tert-Butylphenoxy)-4-ethoxy-3′-(3-p-tolylureido)biphenyl-3-carboxylic acid]
IC50 (Human IDO1): 1.83 µM
IC50 (IDO [2]): 0.12 µM
IC50 (IDO [1]): 1.01 µM

Structure (SMILES): COc1ccc(-c2ccc(Oc3ccccc3C(C)(C)C)c(NC(=O)Nc3ccc(C)cc3)c2)cc1NS(=O)(=O)C(F)(F)F [Example 7, N-(4′-(2-tert-Butylphenoxy)-4-methoxy-3′-(3-p-tolylureido)biphenyl-3-yl)-1,1,1-trifluoromethanesulfonamide]
IC50 (Human IDO1): 0.75 µM
IC50 (IDO [2]): 0.11 µM
IC50 (IDO [1]): 0.32 µM

Structure (SMILES): CCCCc1cc(-c2ccccc2-c2nnn[nH]2)cc(NC(=O)Nc2ccc(C)cc2)c1OCCC [Example 22, 1-(5-Butyl-4-propoxy-2′-(1H-tetrazol-5-yl)-[1,1′-biphenyl]-3-yl)-3-(p-tolyl)urea]
IC50 (Human IDO1): 0.00592 µM
IC50 (IDO [1]): 0.02 µM

Structure (SMILES): CCCOc1c(/C=C/CC(F)(F)F)cc(-c2ccccc2-c2nnn[nH]2)cc1NC(=O)Nc1ccc(C)cc1 [Example 29, (E)-1-(4-Propoxy-2′-(1H-tetrazol-5-yl)-5-(4,4,4-trifluorobut-1-en-1-yl)-[1,1′-biphenyl]-3-yl)-3-(p-tolyl)urea]
IC50 (Human IDO1): 0.03 µM
IC50 (IDO [1]): 0.03 µM

Structure (SMILES): COc1ccc(-c2ccc(Oc3ccccc3C(C)(C)C)c(NC(=O)Nc3ccccc3Cl)c2)cc1C(=O)O [Example 42, 4′-(2-tert-butylphenoxy)-3′-(3-(2-chlorophenyl)ureido)-4-methoxybiphenyl-3-carboxylic acid]
IC50 (Human IDO1): 0.62 µM
IC50 (IDO [2]): 0.09 µM
IC50 (IDO [1]): 0.34 µM

Structure (SMILES): COc1ccc(-c2ccc(Oc3ccccc3C(C)(C)C)c(NC(=O)Nc3ccccc3C(F)(F)F)c2)cc1C(=O)O [Example 46, 4′-(2-tert-butylphenoxy)-4-methoxy-3′-(3-(2-(trifluoromethyl)phenyl)ureido)biphenyl-3-carboxylic acid]
IC50 (Human IDO1): 0.54 µM
IC50 (IDO [2]): 0.05 µM
IC50 (IDO [1]): 0.32 µM

Structure (SMILES): COc1ccc(-c2ccc(Oc3ccccc3C(C)C)c(NC(=O)Nc3ccc(C)cc3)c2)cc1C(=O)O [Example 63, 4′-(2-isopropylphenoxy)-4-methoxy-3′-(3-p-tolylureido)biphenyl-3-carboxylic acid]
IC50 (Human IDO1): 1.6 µM
IC50 (IDO [2]): 0.39 µM
IC50 (IDO [1]): 1.61 µM

Structure (SMILES): COc1ccc(-c2ccc(Oc3ccccc3C)c(NC(=O)Nc3ccc(C)cc3)c2)cc1C(=O)O [Example 73, 4-methoxy-4′-(o-tolyloxy)-3′-(3-p-tolylureido)biphenyl-3-carboxylic acid]
IC50 (Human IDO1): 2.97 µM
IC50 (IDO [2]): 0.84 µM
IC50 (IDO [1]): 1.57 µM

Structure (SMILES): CCCc1ccccc1Oc1ccc(-c2ccc(OC)c(C(=O)O)c2)cc1NC(=O)Nc1ccc(C)cc1 [Example 77, 4-methoxy-4′-(2-propylphenoxy)-3′-(3-p-tolylureido)biphenyl-3-carboxylic acid]
IC50 (Human IDO1): 2.33 µM
IC50 (IDO [2]): 0.33 µM
IC50 (IDO [1]): 0.78 µM

Structure (SMILES): COc1ccc(-c2ccc(Oc3ccccc3C(C)(C)C)c(NC(=O)Nc3ccccc3F)c2)cc1C(=O)O [Example 79, 4′-(2-(tert-butyl)phenoxy)-3′-(3-(2-fluorophenyl)ureido)-4-methoxy-[1,1′-biphenyl]-3-carboxylic acid]
IC50 (Human IDO1): 0.42 µM
IC50 (IDO [2]): 0.06 µM
IC50 (IDO [1]): 0.13 µM

Structure (SMILES): COc1ccc(-c2ccc(Oc3ccccc3C(C)(C)C)c(NC(=O)Nc3ccc(Cl)cc3Cl)c2)cc1C(=O)O [Example 103, 4′-(2-(tert-butyl)phenoxy)-3′-(3-(2,4-dichlorophenyl)ureido)-4-methoxy-[1,1′-biphenyl]-3-carboxylic acid]
IC50 (Human IDO1): 1.31 µM
IC50 (IDO [2]): 0.09 µM
IC50 (IDO [1]): 0.47 µM

Structure (SMILES): COc1ccc(-c2ccc(Oc3cccc(C(C)(C)C)c3)c(NC(=O)Nc3ccc(C)cc3)c2)cc1C(=O)O [Example 113, 4′-(3-tert-butylphenoxy)-4-methoxy-3′-(3-p-tolylureido)biphenyl-3-carboxylic acid]
IC50 (Human IDO1): 1.66 µM
IC50 (IDO [2]): 0.69 µM
IC50 (IDO [1]): 0.88 µM

Structure (SMILES): CC(C)(C)c1ccccc1Oc1ccc(-c2cccc(C(=O)O)c2)cc1NC(=O)Nc1ccc(Cl)cc1 [Example 232, 4′-(2-tert-butylphenoxy)-3′-(3-(4-chlorophenyl)ureido)biphenyl-3-carboxylic acid]
IC50 (Human IDO1): 7.5 µM
IC50 (IDO [2]): 1.8 µM

Structure (SMILES): CC(C)(C)c1ccccc1Oc1ccc(-c2cccc(C(=O)O)c2)cc1NC(=O)Nc1ccc(Br)cc1 [Example 233, 3′-(3-(4-bromophenyl)ureido)-4′-(2-tert-butylphenoxy) biphenyl-3-carboxylic acid]
IC50 (Human IDO1): 7.5 µM
IC50 (IDO [2]): 2.89 µM

Structure (SMILES): CCCOc1c(Br)cc(-c2ccccc2-c2nnn[nH]2)cc1NC(=O)Nc1ccc(C)cc1 [Example 283]
IC50 (Human IDO1): 0.06 µM
IC50 (IDO [1]): 0.03 µM

Structure (SMILES): CCCCCc1cc(-c2ccccc2-c2nnn[nH]2)cc(NC(=O)Nc2ccccc2F)c1OCCC [Example 289]
IC50 (Human IDO1): 0.05 µM
IC50 (IDO [1]): 0.00983 µM

Structure (SMILES): CCCC(Oc1ccc(-c2ccccc2-c2nnn[nH]2)cc1NC(=O)Nc1ccc(C)cc1)c1ccccc1Cl (stereo not drawn) [Example 313]
IC50 (Human IDO1): 0.61 µM
IC50 (IDO [1]): 0.09 µM

Structure (SMILES): O=C(Nc1ccc(OC(F)(F)F)cc1)Nc1cc(-c2ccccc2-c2nnn[nH]2)cc(CC2CC2)c1OCCC(F)(F)F [Example 319]
IC50 (Human IDO1): 0.09 µM
IC50 (IDO [1]): 0.05 µM

Structure (SMILES): Cc1cccc(NC(=O)Nc2cc(-c3ccccc3-c3nnn[nH]3)cc(CC3CC3)c2Oc2ccccc2)c1 [Example 323]
IC50 (Human IDO1): 0.06 µM
IC50 (IDO [1]): 0.04 µM

Structure (SMILES): Cc1ccc(NC(=O)Nc2cc(-c3cc(Cl)cc(C(=O)O)c3)cnc2Oc2ccccc2C(C)(C)C)cc1 [Example 337]
IC50 (Human IDO1): 7.5 µM
IC50 (IDO [2]): 2.26 µM

Structure (SMILES): Cc1ccc(NC(=O)Nc2cc(-c3cncc(C(=O)O)c3)cnc2Oc2ccccc2)cc1 [Example 339]
IC50 (Human IDO1): 6.18 µM
IC50 (IDO [2]): 2.42 µM

Structure (SMILES): CCCOc1c(NC(=O)Nc2ccc(C)cc2)cc(-c2ccccc2-c2nnn[nH]2)cc1C(CC)CCCc1ccccc1 (stereo not drawn) [compound 297]
IC50 (Human IDO1): 0.09 µM
IC50 (IDO [1]): 0.05 µM

More lines, in order of falling IC50 (Human IDO1), values ahead:

IC50 (Human IDO1): 0.04 µM
IC50 (IDO [1]): 0.04 µM
Structure (SMILES): O=C(Nc1ccc(C2CC2)cc1)Nc1cc(-c2ccccc2-c2nnn[nH]2)cc(CC2CC2)c1OCCC(F)(F)F [Example 316]

IC50 (Human IDO1): 0.03 µM
IC50 (IDO [1]): 0.01 µM
Structure (SMILES): C=CC(c1ccccc1)c1cc(-c2ccccc2-c2nnn[nH]2)cc(NC(=O)Nc2ccc(C)cc2)c1OCCC (racemic) [Example 8, 1-(5-(1-Phenylallyl)-4-propoxy-2′-(1H-tetrazol-5-yl)-[1,1′-biphenyl]-3-yl)-3-(p-tolyl)urea]

IC50 (Human IDO1): 0.03 µM
IC50 (IDO [1]): 0.03 µM
Structure (SMILES): CCCOc1c(CCC)cc(-c2ccccc2-c2nnn[nH]2)cc1NC(=O)Nc1ccc(C)cc1 [Example 16, 1-(4-Propoxy-5-propyl-2′-(1H-tetrazol-5-yl)-[1,1′-biphenyl]-3-yl)-3-(p-tolyl)urea]

IC50 (Human IDO1): 0.03 µM
IC50 (IDO [1]): 0.02 µM
Structure (SMILES): C/C=C/Cc1cc(-c2ccccc2-c2nnn[nH]2)cc(NC(=O)Nc2ccc(C)cc2)c1OCCC [Example 19, (E)-1-(5-(But-2-en-1-yl)-4-propoxy-2′-(1H-tetrazol-5-yl)-[1,1′-biphenyl]-3-yl)-3-(p-tolyl)urea]

IC50 (Human IDO1): 0.03 µM
IC50 (IDO [1]): 0.03 µM
Structure (SMILES): CCCOc1c(NC(=O)Nc2ccc(C)cc2)cc(-c2ccccc2-c2nnn[nH]2)cc1C(CC)c1ccccc1 (stereo not drawn) [Example 298]

IC50 (Human IDO1): 0.03 µM
IC50 (IDO [1]): 0.01 µM
Structure (SMILES): O=C(Nc1ccc(OC(F)(F)F)cc1)Nc1cc(-c2ccccc2-c2nnn[nH]2)cc(CC2CC2)c1OCC1CC1 [Example 321]

IC50 (Human IDO1): 0.02 µM
IC50 (IDO [1]): 0.00995 µM
Structure (SMILES): CCCOc1c(/C=C/C=C(F)F)cc(-c2ccccc2-c2nnn[nH]2)cc1NC(=O)Nc1ccc(C)cc1 [Example 30, (E)-1-(5-(4,4-Difluorobuta-1,3-dien-1-yl)-4-propoxy-2′-(1H-tetrazol-5-yl)-[1,1′-biphenyl]-3-yl)-3-(p-tolyl)urea]

IC50 (Human IDO1): 0.02 µM
IC50 (IDO [1]): 0.04 µM
Structure (SMILES): CCCOc1c(CCCC(F)(F)F)cc(-c2ccccc2-c2nnn[nH]2)cc1NC(=O)Nc1ccc(C)cc1 [Example 31, 1-(4-Propoxy-2′-(1H-tetrazol-5-yl)-5-(4,4,4-trifluorobutyl)-[1,1′-biphenyl]-3-yl)-3-(p-tolyl)urea]

IC50 (Human IDO1): 0.02 µM
IC50 (IDO [1]): 0.03 µM
Structure (SMILES): CCCOc1c(CCCc2ccccc2)cc(-c2ccccc2C(=O)O)cc1NC(=O)Nc1ccc(C)cc1 [Example 36, 3′-(3-Phenylpropyl)-4′-propoxy-5′-(3-p-tolylureido)biphenyl-2-carboxylic acid]

IC50 (Human IDO1): 0.01 µM
IC50 (IDO [1]): 0.00947 µM
Structure (SMILES): CCCOc1c(C/C=C/C(F)(F)F)cc(-c2ccccc2-c2nnn[nH]2)cc1NC(=O)Nc1ccc(C)cc1 [Example 32, (E)-1-(4-Propoxy-2′-(1H-tetrazol-5-yl)-5-(4,4,4-trifluorobut-2-en-1-yl)-[1,1′-biphenyl]-3-yl)-3-(p-tolyl)urea]

IC50 (Human IDO1): 0.00649 µM
IC50 (IDO [1]): 0.00556 µM
Structure (SMILES): CC/C=C/Cc1cc(-c2ccccc2-c2nnn[nH]2)cc(NC(=O)Nc2ccccc2F)c1OCCC [Example 284]

IC50 (Human IDO1): 0.00449 µM
IC50 (IDO [1]): 0.00325 µM
Structure (SMILES): CCCC(CCC)Oc1c(Br)cc(-c2ccccc2-c2nnn[nH]2)cc1NC(=O)Nc1ccccc1F [Example 287]

Source: patent US9765018B2, “IDO inhibitors” (BRISTOL-MYERS SQUIBB COMPANY, priority 2013, dated 2017)
